Measured values taken from PubChem BioAssay (NCI).
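1) Cells in 96-well plates. 2) Compound, 48 h, 5 concentrations. 3) Linear interpolation between surrounding doses. 4) Unreached endpoint = highest concentration. The concentration for 50% growth inhibition is given as GI50. TGI denotes the concentration required for complete inhibition of growth.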

Columns and labels:
Test in all cases: NCI-60 cell line screen, 48 h
UO-31 renal = system: UO-31 renal
NCI-H522 lung = system: NCI-H522 lung
UACC-257 melanoma = system: UACC-257 melanoma
T-47D breast = system: T-47D breast
HOP-62 NSCLC = system: HOP-62 NSCLC
NCI-H23 lung = system: NCI-H23 lung
SF-539 CNS = system: SF-539 CNS
SK-MEL-5 melanoma = system: SK-MEL-5 melanoma
SK-MEL-28 melanoma = system: SK-MEL-28 melanoma
K-562 leukemia = system: K-562 leukemia
HCT-15 colon = system: HCT-15 colon
SNB-19 CNS = system: SNB-19 CNS
HCT-116 colon = system: HCT-116 colon
UACC-62 melanoma = system: UACC-62 melanoma
PC-3 prostate = system: PC-3 prostate
786-0 renal = system: 786-0 renal
OVCAR-3 ovarian = system: OVCAR-3 ovarian
NCI/ADR-RES ovarian = system: NCI/ADR-RES ovarian
SR leukemia = system: SR leukemia
MCF7 breast = system: MCF7 breast
HL-60(TB) leukemia = system: HL-60(TB) leukemia
M14 melanoma = system: M14 melanoma
MDA-MB-435 = system: MDA-MB-435
SK-MEL-2 melanoma = system: SK-MEL-2 melanoma
SN12C renal = system: SN12C renal
OVCAR-5 ovarian = system: OVCAR-5 ovarian
KM12 colon = system: KM12 colon
MDA-MB-231 breast = system: MDA-MB-231 breast
SW-620 colon = system: SW-620 colon
SF-268 CNS = system: SF-268 CNS
U251 CNS = system: U251 CNS
SNB-75 CNS = system: SNB-75 CNS
NCI-H460 lung = system: NCI-H460 lung
MALME-3M melanoma = system: MALME-3M melanoma
A498 renal = system: A498 renal
HCC-2998 colon = system: HCC-2998 colon
RXF 393 renal = system: RXF 393 renal
TK-10 renal = system: TK-10 renal
DU-145 prostate = system: DU-145 prostate
HS 578T breast = system: HS 578T breast
CAKI-1 renal = system: CAKI-1 renal
SK-OV-3 ovarian = system: SK-OV-3 ovarian
ACHN renal = system: ACHN renal
BT-549 breast = system: BT-549 breast
EKVX NSCLC = system: EKVX NSCLC
HOP-92 NSCLC = system: HOP-92 NSCLC
OVCAR-4 ovarian = system: OVCAR-4 ovarian
COLO 205 colon = system: COLO 205 colon
NCI-H226 lung = system: NCI-H226 lung
SF-295 CNS = system: SF-295 CNS
IGROV1 ovarian = system: IGROV1 ovarian
A549 NSCLC = system: A549 NSCLC
LOX IMVI melanoma = system: LOX IMVI melanoma

Structure (SMILES): CN1CCN(CCCOc2cccc3nc(Nc4ccc(Cl)c(C(F)(F)F)c4)ccc23)CC1
- GI50 (UO-31 renal): 1460 nM
- TGI (UO-31 renal): 2880 nM
- GI50 (NCI-H522 lung): 1830 nM
- TGI (NCI-H522 lung): 3640 nM
- GI50 (UACC-257 melanoma): 1720 nM
- TGI (UACC-257 melanoma): 3500 nM
- GI50 (T-47D breast): 1970 nM
- TGI (T-47D breast): 4520 nM
- GI50 (HOP-62 NSCLC): 1700 nM
- TGI (HOP-62 NSCLC): 3320 nM
- GI50 (NCI-H23 lung): 1780 nM
- TGI (NCI-H23 lung): 3420 nM
- GI50 (SF-539 CNS): 1580 nM
- TGI (SF-539 CNS): 3020 nM
- GI50 (SK-MEL-5 melanoma): 1690 nM
- TGI (SK-MEL-5 melanoma): 3130 nM
- GI50 (SK-MEL-28 melanoma): 1390 nM
- TGI (SK-MEL-28 melanoma): 2810 nM
- GI50 (K-562 leukemia): 1620 nM
- TGI (K-562 leukemia): 3340 nM
- GI50 (HCT-15 colon): 1220 nM
- TGI (HCT-15 colon): 2640 nM
- GI50 (SNB-19 CNS): 1640 nM
- TGI (SNB-19 CNS): 3140 nM
- GI50 (HCT-116 colon): 1500 nM
- TGI (HCT-116 colon): 2840 nM
- GI50 (UACC-62 melanoma): 1720 nM
- TGI (UACC-62 melanoma): 3270 nM
- GI50 (PC-3 prostate): 1570 nM
- TGI (PC-3 prostate): 3030 nM
- GI50 (786-0 renal): 1500 nM
- TGI (786-0 renal): 2890 nM
- GI50 (OVCAR-3 ovarian): 1810 nM
- TGI (OVCAR-3 ovarian): 3310 nM
- GI50 (NCI/ADR-RES ovarian): 1730 nM
- TGI (NCI/ADR-RES ovarian): 3370 nM
- GI50 (SR leukemia): 540 nM
- TGI (SR leukemia): 3400 nM
- GI50 (MCF7 breast): 1410 nM
- TGI (MCF7 breast): 2990 nM
- GI50 (HL-60(TB) leukemia): 1870 nM
- TGI (HL-60(TB) leukemia): 4030 nM
- GI50 (M14 melanoma): 1810 nM
- TGI (M14 melanoma): 3480 nM
- GI50 (MDA-MB-435): 1680 nM
- TGI (MDA-MB-435): 3230 nM
- GI50 (SK-MEL-2 melanoma): 2060 nM
- TGI (SK-MEL-2 melanoma): 4490 nM
- GI50 (SN12C renal): 1600 nM
- TGI (SN12C renal): 3380 nM
- GI50 (OVCAR-5 ovarian): 1850 nM
- TGI (OVCAR-5 ovarian): 3410 nM
- GI50 (KM12 colon): 1740 nM
- TGI (KM12 colon): 3240 nM
- GI50 (MDA-MB-231 breast): 1470 nM
- TGI (MDA-MB-231 breast): 3100 nM
- GI50 (SW-620 colon): 1890 nM
- TGI (SW-620 colon): 3830 nM
- GI50 (SF-268 CNS): 1850 nM
- TGI (SF-268 CNS): 3660 nM
- GI50 (U251 CNS): 1490 nM
- TGI (U251 CNS): 3230 nM
- GI50 (SNB-75 CNS): 1520 nM
- TGI (SNB-75 CNS): 3780 nM
- GI50 (NCI-H460 lung): 1720 nM
- TGI (NCI-H460 lung): 3520 nM
- GI50 (MALME-3M melanoma): 1750 nM
- TGI (MALME-3M melanoma): 3450 nM
- GI50 (A498 renal): 1680 nM
- TGI (A498 renal): 3540 nM
- GI50 (HCC-2998 colon): 1910 nM
- TGI (HCC-2998 colon): 3440 nM
- GI50 (RXF 393 renal): 1630 nM
- TGI (RXF 393 renal): 3440 nM
- GI50 (TK-10 renal): 1800 nM
- TGI (TK-10 renal): 3440 nM
- GI50 (DU-145 prostate): 1810 nM
- TGI (DU-145 prostate): 3270 nM
- GI50 (HS 578T breast): 2000 nM
- TGI (HS 578T breast): 4660 nM
- GI50 (CAKI-1 renal): 1670 nM
- TGI (CAKI-1 renal): 3190 nM
- GI50 (SK-OV-3 ovarian): 1990 nM
- TGI (SK-OV-3 ovarian): 4350 nM
- GI50 (ACHN renal): 1590 nM
- TGI (ACHN renal): 3070 nM
- GI50 (BT-549 breast): 1710 nM
- TGI (BT-549 breast): 3310 nM
- GI50 (EKVX NSCLC): 1820 nM
- TGI (EKVX NSCLC): 3980 nM
- GI50 (HOP-92 NSCLC): 1020 nM
- TGI (HOP-92 NSCLC): 3690 nM
- GI50 (OVCAR-4 ovarian): 2730 nM
- TGI (OVCAR-4 ovarian): 7450 nM
- GI50 (COLO 205 colon): 1720 nM
- TGI (COLO 205 colon): 3350 nM
- GI50 (NCI-H226 lung): 2070 nM
- TGI (NCI-H226 lung): 4890 nM
- GI50 (SF-295 CNS): 1800 nM
- TGI (SF-295 CNS): 3380 nM
- GI50 (IGROV1 ovarian): 1850 nM
- TGI (IGROV1 ovarian): 3600 nM
- GI50 (A549 NSCLC): 1720 nM
- TGI (A549 NSCLC): 3660 nM
- GI50 (LOX IMVI melanoma): 1560 nM
- TGI (LOX IMVI melanoma): 3070 nM
